From patent US20040157799A1, “Pharmaceutical uses of bisphosphonates” (priority 2004, published 2004)

Columns and labels:
[1] = test system: prostate cancer patients with a history of metastatic bone disease; assay: double-blind, placebo-controlled clinical study of zoledronic acid: skeletal-related events; assay type: in vivo, human; settings: for patients with at least one skeletal-related event: i.v. every 3 weeks, placebo 44.2% (N=208); for patients with pathologic fractures: placebo 22.1%; for median time to the first skeletal-related event: placebo 320 days
From the text: Skeletal-related events (SREs) are defined as pathologic bone fracture events, spinal cord compression events, surgery to bone, radiation therapy to bone (including the use of radioisotopes) and a change of antineoplastic therapy to treat bone pain. Thus, SREs are the primary end-points in this study. The key efficacy endpoints are the proportion of patients having at least one SRE and the time to first SRE.
Secondary objectives are to assess the effect of zoledronic acid therapy on pain scores, analgesic use, performance status, Quality of Life scores, time to termination of active study participation, and to assess the safety and tolerability of zoledronate. Changes in bone resorption and formation markers are also evaluated. Bone mineral density measurements are evaluated in patients at selected clinical centers. In addition, time to progression of disease in bone and time to overall progression of disease are evaluated.
This study is an international, multicenter, randomized, double-blind, placebo-controlled, parallel study. […] The rising serum PSA level is documented by three consecutively rising serum PSA measurements (i.e., the third PSA level is to be>the second PSA level which is >the first PSA level which is >the nadir serum PSA concentration achieved during first-line hormonal therapy for metastatic prostate cancer), each separated from the other by at least two weeks. The rising serum PSA level represents an “early” event in the development of progressive metastatic disease.
Patients are randomized in a double-blind fashion to receive either zoledronate 4 mg intravenously, or zoledronate 8 mg intravenously, or a placebo intravenous infusion every three weeks in addition to their antineoplastic therapy. The randomized treatment assignment ratio is to be 1:1:1. In addition, all patients are to receive 500 mg of calcium orally and a multivitamin tablet (containing 400-500 I.U. of vitamin D) daily throughout the study.
The occurrence of skeletal-related events (SRE's) is collected throughout the trial for each patient in order to determine the proportion of patients experiencing at least one SRE, the time to the first SRE, and the skeletal morbidity rate (see section 4). Time to progression of disease in bone is assessed centrally (central radiologist) by review of serial bone radiographic studies. Time to overall progression of disease is determined by the patient's treating physician: by evaluating the central assessments (central radiologist) of serial bone radiographic studies; by evaluating the central assessments (central radiologist) of appropriate serial radiographic studies of non-skeletal tumor sites, if present; by evaluating serial serum PSA levels; and by evaluating serial patient weight measurements. Quality of Life, performance status, health care utilization and productivity loss data, and pain, and analgesic use scores are determined serially throughout the study. This information is also collected for those patients who discontinue active therapy within 24 months from the date of randomization into the study. Information about adverse events which occur during the patient's clinical course is collected throughout the study.
The study is made up of two phases, phase 1, the Efficacy and Safety Phase, and phase 2, the Extension Phase. The primary efficacy analysis is performed at the completion of phase 1, the Efficacy and Safety Phase, which consists of 60 weeks (20 cycles) of study treatment. Phase 2 consists of an additional 36 weeks (12 cycles) of study therapy. The primary purpose of phase 2 is to obtain long-term zoledronate treatment safety and survival data, however efficacy data will continue to be collected. […] No interim analyses are planned. […]

[2] = test system: prostate cancer cell lines; settings: in vitro treatment (Brown et al.; Lee et al.); cited from earlier work
[3] = test system: subcutaneous prostate cancer cell line tumours; settings: subcutaneous prostate cancer cell line tumours (Corey et al.); cited from earlier work

O=P(O)(O)C(O)(Cn1ccnc1)P(=O)(O)O [zoledronic acid, 2-(imidazol-1yl)-1-hydroxyethane-1,1-diphosphonic acid]
effect on skeletal-related events ([1]; 4 mg 15-minute infusions every 3 weeks, metastatic prostate cancer refractory to hormonal therapy): significantly reduce skeletal-related events
tolerability ([1]; 4 mg given as a 15-minute infusion): well-tolerated
efficacy in the treatment of bone metastases vs. placebo ([1]; prostate cancer patients, double blind, placebo-controlled): statistically significant efficacy benefit over placebo
patients with at least one skeletal-related event ([1]; zoledronic acid 4 mg group (N=214), p=0.021 vs. placebo): 33.2%
patients with pathologic fractures ([1]; zoledronic acid 4 mg group, p=0.015 vs. placebo): 13.1%
median time to the first skeletal-related event ([1]; zoledronic acid 4 mg group, p=0.011 vs. placebo): not reached
patients with at least one skeletal-related event ([1]; zoledronic acid 8/4 mg group (N=221), p=0.222 vs. placebo): 38.5%
patients with pathologic fractures ([1]; zoledronic acid 8/4 mg group, p=0.054 vs. placebo): 14.9%
median time to the first skeletal-related event ([1]; zoledronic acid 8/4 mg group, p=0.491 vs. placebo): 363 days
growth of prostate cancer cell lines [2]: significantly reduced the growth of the cell lines
tumour volume [3]: no significant decrease in tumour volume
